Results: ChEMBL document CHEMBL1201862, “PubChem BioAssay data set” (2004)
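Results reflect a 48-hour exposure of cells in 96-well plates to compound at five concentrations. GI50 is the concentration that inhibits growth by half.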 Calls of active or inactive are those of the source. Cut-off read from the data, not from the text of the source: active = GI50 up to about 1.1 µM and inactive = higher.

Assays:
Test in all cases: NCI anticancer screen, dose series, 48 h
[1] = test system: CAKI-1
[2] = test system: CCRF-CEM
[3] = test system: HCC 2998
[4] = test system: HCT-116
[5] = test system: HCT-15
[6] = test system: HL-60
[7] = test system: HOP-92
[8] = test system: KM12
[9] = test system: MCF7
[10] = test system: MDA-N
[11] = test system: NCI-H23
[12] = test system: PC-3
[13] = test system: SF-268
[14] = test system: SK-OV-3
[15] = test system: SN12C
[16] = test system: T47D
[17] = test system: UACC-257
[18] = test system: UACC-62
[19] = test system: SR

SMILES: CCCCNc1c(CN)cnc2cc(Cl)ccc12
- GI50 [1]: 21.1 µM (inactive)
- GI50 [2]: 4.7 µM (inactive)
- GI50 [3]: 2.73 µM (inactive)
- GI50 [4]: 15 µM (inactive)
- GI50 [5]: 17.1 µM
- GI50 [6]: 0.394 µM (active)
- GI50 [7]: 15.9 µM (inactive)
- GI50 [8]: 15.5 µM (inactive)
- GI50 [9]: 14.5 µM (inactive)
- GI50 [10]: 16.1 µM (inactive)
- GI50 [11]: 19.3 µM (inactive)
- GI50 [12]: 16.8 µM (inactive)
- GI50 [13]: 23.6 µM (inactive)
- GI50 [14]: 14.3 µM (inactive)
- GI50 [15]: 18.4 µM (inactive)
- GI50 [16]: 19.2 µM (inactive)
- GI50 [17]: 13 µM (inactive)
- GI50 [18]: 15.6 µM (inactive)

SMILES: CCOc1cn(C2CC(O)C(CO)O2)c(=O)[nH]c1=O (stereo unspecified)
- GI50 [1]: > 100 µM (inactive)
- GI50 [2]: > 100 µM (inactive)
- GI50 [3]: > 100 µM (inactive)
- GI50 [4]: > 100 µM (inactive)
- GI50 [5]: > 100 µM
- GI50 [6]: > 100 µM (inactive)
- GI50 [7]: > 100 µM (inactive)
- GI50 [8]: > 100 µM (inactive)
- GI50 [9]: 45.9 µM (inactive)
- GI50 [10]: > 100 µM (inactive)
- GI50 [11]: > 100 µM (inactive)
- GI50 [12]: > 100 µM (inactive)
- GI50 [13]: > 100 µM (inactive)
- GI50 [14]: > 100 µM (inactive)
- GI50 [15]: > 100 µM (inactive)
- GI50 [16]: > 100 µM (inactive)
- GI50 [17]: > 100 µM (inactive)
- GI50 [18]: > 100 µM (inactive)

SMILES: Cc1nnc(Nc2ccccc2)o1
- GI50 [1]: > 100 µM (inactive)
- GI50 [2]: > 100 µM (inactive)
- GI50 [4]: > 100 µM (inactive)
- GI50 [5]: > 100 µM
- GI50 [6]: > 100 µM (inactive)
- GI50 [8]: > 100 µM (inactive)
- GI50 [9]: > 100 µM (inactive)
- GI50 [10]: > 100 µM (inactive)
- GI50 [11]: > 100 µM (inactive)
- GI50 [12]: > 100 µM (inactive)
- GI50 [13]: > 100 µM (inactive)
- GI50 [14]: > 100 µM (inactive)
- GI50 [15]: > 100 µM (inactive)
- GI50 [19]: > 100 µM (inactive)
- GI50 [16]: > 100 µM (inactive)
- GI50 [17]: > 100 µM (inactive)
- GI50 [18]: > 100 µM (inactive)

SMILES: Cc1ccc2[nH]c3[nH]c(=O)[nH]c(=O)c3c2c1
- GI50 [1]: > 100 µM (inactive)
- GI50 [2]: > 100 µM (inactive)
- GI50 [4]: > 100 µM (inactive)
- GI50 [5]: > 100 µM
- GI50 [6]: > 100 µM (inactive)
- GI50 [7]: > 100 µM (inactive)
- GI50 [8]: 43.6 µM (inactive)
- GI50 [9]: > 100 µM (inactive)
- GI50 [10]: > 100 µM (inactive)
- GI50 [11]: > 100 µM (inactive)
- GI50 [13]: > 100 µM (inactive)
- GI50 [14]: > 100 µM (inactive)
- GI50 [15]: > 100 µM (inactive)
- GI50 [19]: > 10 µM (inactive)
- GI50 [16]: > 100 µM (inactive)
- GI50 [17]: > 100 µM (inactive)
- GI50 [18]: > 100 µM (inactive)

SMILES: CC(C)(C)C(=O)CC(=O)C(F)(F)C(F)(F)C(F)(F)F
- GI50 [1]: 14.7 µM (inactive)
- GI50 [2]: 16.3 µM (inactive)
- GI50 [4]: 18.3 µM (inactive)
- GI50 [5]: 14.3 µM
- GI50 [6]: 19.2 µM (inactive)
- GI50 [7]: 14.7 µM (inactive)
- GI50 [8]: 16.7 µM (inactive)
- GI50 [10]: 15.4 µM (inactive)
- GI50 [11]: 12.6 µM (inactive)
- GI50 [12]: 13.6 µM (inactive)
- GI50 [13]: 17 µM (inactive)
- GI50 [14]: 20.9 µM (inactive)
- GI50 [15]: 13.9 µM (inactive)
- GI50 [19]: 5.06 µM (inactive)
- GI50 [16]: 16 µM (inactive)
- GI50 [17]: 15.3 µM (inactive)
- GI50 [18]: 15.3 µM (inactive)

SMILES: CCN(CC)Cc1cc(Nc2c3ccccc3nc3c4ccccc4n(C)c23)cc(CN(CC)CC)c1O
- GI50 [1]: 13.5 µM (inactive)
- GI50 [2]: 2.4 µM (inactive)
- GI50 [3]: 5.11 µM (inactive)
- GI50 [4]: 2.89 µM (inactive)
- GI50 [5]: 4.1 µM
- GI50 [6]: 2.31 µM (inactive)
- GI50 [7]: 4.6 µM (inactive)
- GI50 [8]: 6.58 µM (inactive)
- GI50 [9]: 3.61 µM (inactive)
- GI50 [11]: 9.64 µM (inactive)
- GI50 [12]: 2.42 µM (inactive)
- GI50 [13]: 6.78 µM (inactive)
- GI50 [14]: 14.4 µM (inactive)
- GI50 [15]: 6.61 µM (inactive)
- GI50 [19]: 2.82 µM (inactive)
- GI50 [16]: 3.18 µM (inactive)
- GI50 [17]: 2.73 µM (inactive)
- GI50 [18]: 2.81 µM (inactive)

SMILES: c1ccc2c(c1)ccn1ccc3c4ccccc4nc-3c21
- GI50 [1]: 0.417 µM (active)
- GI50 [2]: 0.26 µM (active)
- GI50 [3]: 0.191 µM (active)
- GI50 [4]: 0.0935 µM (active)
- GI50 [5]: 0.305 µM
- GI50 [6]: 0.297 µM (active)
- GI50 [7]: 1.41 µM (inactive)
- GI50 [8]: 0.346 µM (active)
- GI50 [9]: 0.229 µM (active)
- GI50 [11]: 0.289 µM (active)
- GI50 [12]: 0.384 µM (active)
- GI50 [13]: 0.536 µM (active)
- GI50 [14]: 0.566 µM (active)
- GI50 [15]: 0.285 µM (active)
- GI50 [19]: < 0.01 µM (active)
- GI50 [16]: 0.71 µM (active)
- GI50 [17]: 1.06 µM (active)
- GI50 [18]: 1.16 µM (inactive)

SMILES: O=C1c2c(ccc3c2CCC3)CC12Cc1ccccc1C2
- GI50 [1]: 5.94 µM (inactive)
- GI50 [2]: 11.4 µM (inactive)
- GI50 [3]: 22 µM (inactive)
- GI50 [4]: 5.92 µM (inactive)
- GI50 [5]: 15.6 µM
- GI50 [6]: 10.4 µM (inactive)
- GI50 [7]: 10.5 µM (inactive)
- GI50 [8]: 22.5 µM (inactive)
- GI50 [9]: 27.5 µM (inactive)
- GI50 [10]: 2.94 µM (inactive)
- GI50 [11]: 20.8 µM (inactive)
- GI50 [12]: 25.1 µM (inactive)
- GI50 [13]: 33.7 µM (inactive)
- GI50 [14]: 17.9 µM (inactive)
- GI50 [15]: 19.5 µM (inactive)
- GI50 [16]: 28.2 µM (inactive)
- GI50 [17]: 22.1 µM (inactive)

SMILES: COC(=O)Cc1c([C@H]2[C@H](CC(=O)OC)c3ccccc3N2C(C)=O)[nH]c2ccccc12
- GI50 [1]: > 100 µM (inactive)
- GI50 [2]: 67.5 µM (inactive)
- GI50 [4]: > 100 µM (inactive)
- GI50 [5]: 64.3 µM
- GI50 [6]: 85.3 µM (inactive)
- GI50 [7]: > 100 µM (inactive)
- GI50 [8]: > 100 µM (inactive)
- GI50 [10]: > 100 µM (inactive)
- GI50 [11]: 50.9 µM (inactive)
- GI50 [12]: 80 µM (inactive)
- GI50 [13]: > 100 µM (inactive)
- GI50 [14]: > 100 µM (inactive)
- GI50 [15]: > 100 µM (inactive)
- GI50 [16]: > 100 µM (inactive)
- GI50 [17]: > 100 µM (inactive)
- GI50 [18]: > 100 µM (inactive)

SMILES: Cc1cc(C)c(/N=N/c2c(O)c(S(=O)(=O)O)cc3cc(S(=O)(=O)O)ccc23)cc1C
- GI50 [1]: > 100 µM (inactive)
- GI50 [2]: > 100 µM (inactive)
- GI50 [4]: > 100 µM (inactive)
- GI50 [5]: > 100 µM
- GI50 [7]: > 100 µM (inactive)
- GI50 [8]: > 100 µM (inactive)
- GI50 [10]: > 100 µM (inactive)
- GI50 [11]: > 100 µM (inactive)
- GI50 [12]: > 100 µM (inactive)
- GI50 [13]: > 100 µM (inactive)
- GI50 [14]: > 100 µM (inactive)
- GI50 [15]: > 100 µM (inactive)
- GI50 [16]: > 100 µM (inactive)
- GI50 [17]: > 100 µM (inactive)
- GI50 [18]: > 100 µM (inactive)

SMILES: COC(=O)c1c(C)cccc1C1CN=NC12Cc1cc(C)cc(C)c1C2=O (stereo unspecified)
- GI50 [1]: 24.9 µM (inactive)
- GI50 [2]: 23 µM (inactive)
- GI50 [3]: 22.9 µM (inactive)
- GI50 [4]: 27.9 µM (inactive)
- GI50 [5]: 30.5 µM
- GI50 [6]: 20 µM (inactive)
- GI50 [7]: 20.4 µM (inactive)
- GI50 [8]: 31.4 µM (inactive)
- GI50 [9]: 6.85 µM (inactive)
- GI50 [10]: 37.6 µM (inactive)
- GI50 [11]: 20.7 µM (inactive)
- GI50 [12]: 30.1 µM (inactive)
- GI50 [13]: 52.2 µM (inactive)
- GI50 [14]: 38.5 µM (inactive)
- GI50 [15]: 41.8 µM (inactive)
- GI50 [16]: 30.2 µM (inactive)
- GI50 [17]: 22.9 µM (inactive)
- GI50 [18]: 70.6 µM (inactive)

SMILES: COc1ccc(/C=C2\CCC(CNc3ccc(Br)cc3)C2=O)cc1 (stereo unspecified)
- GI50 [1]: > 100 µM (inactive)
- GI50 [2]: 31.8 µM (inactive)
- GI50 [3]: 83.9 µM (inactive)
- GI50 [5]: 8.45 µM
- GI50 [6]: 24.5 µM (inactive)
- GI50 [7]: > 100 µM (inactive)
- GI50 [8]: 29.1 µM (inactive)
- GI50 [9]: 21.5 µM (inactive)
- GI50 [11]: > 100 µM (inactive)
- GI50 [12]: > 100 µM (inactive)
- GI50 [13]: > 100 µM (inactive)
- GI50 [14]: > 100 µM (inactive)
- GI50 [15]: 10.2 µM (inactive)
- GI50 [19]: 24.2 µM (inactive)
- GI50 [16]: 84.7 µM (inactive)
- GI50 [17]: > 100 µM (inactive)
- GI50 [18]: 34.8 µM (inactive)
